Columns and labels:
Format in all cases: cell-based
[1] = tested on: Enterobacter spp 9306069 (HL case); assay: Growth and enzymatic activity on ChromID CPS-based selective media; parameters: key to the marks not given beside the values; conditions: cefpodoxime 4 mg/l (T), cefepime 0.25 mg/l (A), cefamandole 3 mg/l (B), cefuroxime 3 mg/l (C), each with 300 mg/l cloxacillin
Excerpt: (§1) Choice of strains: The inventors selected strains which make it possible to evaluate the activity of antibiotics with respect to Gram-negative species: enterobacteria and nonfermenting bacilli. In particular, ESBL-producing strains, high-level cephalosporinase-producing strains (HL Case) and strains without a particular resistance profile, termed wild-type strains, were used.
(§2) Preparation of media: The media tested were media composed of the peptone base of the ChromID CPS medium (bioMérieux ref 43541) to which were added, after autoclaving, in molten media, 300 mg/l cloxacillin and, for medium T: 4 mg/l cefpodoxime, for medium A: 0.25 mg/L of cefepime, for medium B: 3 mg/l of cefamandole and for medium C: 3 mg/l of cefuroxime.
(§3) Inoculation of media: The media are inoculated by carrying out a 3-quadrant streaking method using bacterial suspensions at 0.5 McF. The media are then incubated for 24 hours at 37° C.
(§4) Reading of media: The media are observed visually after 18 h and 24 hours of incubation, the growth density and also the colorations and coloration strengths are evaluated according to the scale below: • − or 0: absence of growth or of expression of enzymatic acitivity (i.e. no coloration) • +: weak growth, or enzymatic activity • ++: very strong growth density or strong enzymatic acitivity (very strong coloration)

[2] = tested on: Escherichia coli 0411146 (ESBL); assay: as above; parameters: key to the marks not given beside the values; conditions: cefpodoxime 4 mg/l (T), cefepime 0.25 mg/l (A), cefamandole 3 mg/l (B), cefuroxime 3 mg/l (C), each with 300 mg/l cloxacillin
Excerpt: as §1, §2, §3, §4

[3] = tested on: Enterobacter aerogenes 0502112 (ESBL); assay: as above; parameters: key to the marks not given beside the values; conditions: cefpodoxime 4 mg/l (T), cefepime 0.25 mg/l (A), cefamandole 3 mg/l (B), cefuroxime 3 mg/l (C), each with 300 mg/l cloxacillin
Excerpt: as §1, §2, §3, §4

[4] = tested on: Klebsiella oxytoca 0502094 (ESBL); assay: as above; parameters: key to the marks not given beside the values; conditions: cefpodoxime 4 mg/l (T), cefepime 0.25 mg/l (A), cefamandole 3 mg/l (B), cefuroxime 3 mg/l (C), each with 300 mg/l cloxacillin
Excerpt: as §1, §2, §3, §4

[5] = tested on: ESBL-producing strains, strains producing an HL Case, wild-type taxon strains; assay: Overall conclusion on the selective media over the strain panel
Excerpt: as §1, §2, §3, §4

[6] = tested on: Klebsiella oxytoca 0105100 (HL case); assay: Growth and enzymatic activity on ChromID CPS-based selective media; conditions: cefpodoxime 4 mg/l (T), cefepime 0.25 mg/l (A), cefamandole 3 mg/l (B), cefuroxime 3 mg/l (C), each with 300 mg/l cloxacillin
Excerpt: as §1, §2, §3, §4

[7] = tested on: Proteus mirabilis 0105109 (HL case); assay: as above; conditions: cefpodoxime 4 mg/l (T), cefepime 0.25 mg/l (A), cefamandole 3 mg/l (B), cefuroxime 3 mg/l (C), each with 300 mg/l cloxacillin
Excerpt: as §1, §2, §3, §4

[8] = tested on: Proteus mirabilis 9709068 (ESBL); assay: as above; conditions: cefpodoxime 4 mg/l (T), cefepime 0.25 mg/l (A), cefamandole 3 mg/l (B), cefuroxime 3 mg/l (C), each with 300 mg/l cloxacillin
Excerpt: as §1, §2, §3, §4

[9] = tested on: Proteus mirabilis 0105105 (HL case); assay: as above; conditions: cefpodoxime 4 mg/l (T), cefepime 0.25 mg/l (A), cefamandole 3 mg/l (B), cefuroxime 3 mg/l (C), each with 300 mg/l cloxacillin
Excerpt: as §1, §2, §3, §4

[10] = tested on: Serratia fonticola 8001047 (Wild-type); assay: as above; conditions: cefpodoxime 4 mg/l (T), cefepime 0.25 mg/l (A), cefamandole 3 mg/l (B), cefuroxime 3 mg/l (C), each with 300 mg/l cloxacillin
Excerpt: as §1, §2, §3, §4

[11] = tested on: Morganella morganii 9904104 (HL case); assay: as above; conditions: cefpodoxime 4 mg/l (T), cefepime 0.25 mg/l (A), cefamandole 3 mg/l (B), cefuroxime 3 mg/l (C), each with 300 mg/l cloxacillin
Excerpt: as §1, §2, §3, §4

[12] = tested on: Enterobacter spp 0503037 (Wild-type); assay: as above; conditions: cefpodoxime 4 mg/l (T), cefepime 0.25 mg/l (A), cefamandole 3 mg/l (B), cefuroxime 3 mg/l (C), each with 300 mg/l cloxacillin
Excerpt: as §1, §2, §3, §4

[13] = tested on: Escherichia coli 0505101 (ESBL); assay: as above; parameters: Enz act.: key to the marks not given beside the values; conditions: cefpodoxime 4 mg/l (T), cefepime 0.25 mg/l (A), cefamandole 3 mg/l (B), cefuroxime 3 mg/l (C), each with 300 mg/l cloxacillin
Excerpt: as §1, §2, §3, §4

## CO/N=C(\C(=O)N[C@@H]1C(=O)N2C(C(=O)[O-])=C(C[N+]3(C)CCCC3)CS[C@H]12)c1csc(N)n1 [Cefepime, cefepime]
[1]; 18 h at 37° C.
  Enz act.: ++
  Growth: ++
[1]; 24 h at 37° C.
  Enz act.: ++
  Growth: ++
[2]; 18 h at 37° C.
  Enz act.: ++
  Growth: ++
[2]; 24 h at 37° C.
  Enz act.: ++
  Growth: ++
[3]; 18 h at 37° C.
  Enz act.: ++
  Growth: ++
[3]; 24 h at 37° C.
  Enz act.: ++
  Growth: ++
[4]; 18 h at 37° C.
  Enz act.: ++
  Growth: ++
[4]; 24 h at 37° C.
  Enz act.: ++
  Growth: ++
[5]; compared with cefpodoxime, cefamandole, cefuroxime media
  sensitivity and specificity of detection of the ESBL strains: best sensitivity and specificity
[5]; medium A: 0.25 mg/L cefepime with 300 mg/l cloxacillin
  discrimination between the ESBL-producing strains, the strains producing an HL Case or the wild-type taxon strains: good discrimination
[6]; 18 h at 37° C.
  Enz act.: −
  Growth: −
[6]; 24 h at 37° C.
  Enz act.: −
  Growth: −
[7]; 18 h at 37° C.
  Enz act.: −
  Growth: −
[7]; 24 h at 37° C.
  Enz act.: −
  Growth: −
[8]; 18 h at 37° C.
  Enz act.: +
  Growth: +
[8]; 24 h at 37° C.
  Enz act.: +
  Growth: +
[9]; 18 h at 37° C.
  Enz act.: −
  Growth: −
[9]; 24 h at 37° C.
  Enz act.: −
  Growth: −
[10]; 18 h at 37° C.
  Enz act.: −
  Growth: −
[10]; 24 h at 37° C.
  Enz act.: −
  Growth: −
[11]; 18 h at 37° C.
  Enz act.: −
  Growth: −
[11]; 24 h at 37° C.
  Enz act.: −
  Growth: −
[12]; 18 h at 37° C.
  Enz act.: −
  Growth: −
[12]; 24 h at 37° C.
  Enz act.: −
  Growth: −
[13]; 18 h at 37° C.
  Enz act.: ++
  Growth: ++
[13]; 24 h at 37° C.
  Enz act.: ++
  Growth: ++

Source: patent US20120122148A1, “Media For The Specific Detection Of Gram-Negative Bacteria Resistant To Beta-Lactam Antibiotics” (bioMerieux, SA, priority 2009, published 2012)
